Results from PubChem BioAssay AID2060625 (Molecular Pharmacology Branch, DTP, NCI, 2025).

Test system: 186277-243-T-J2-PDC spheroids with HUVEC/MSC, viability
Assay: Anticancer human tumor 186277-243-T-J2-PDC patient-derived colon adenocarcinoma cell line growth inhibition [CLK]
Conditions: for IC50: curve of first compound; for viability, T/C: stronger effect = lower value
Outline: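 Multi-cell-type spheroids combined patient-derived tumor cells with HUVEC endothelial cells and human mesenchymal stem cells. Paired agents were dosed in half-log steps down from about clinical Cmax, or from 10 microM where Cmax was unknown.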
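Further: compound exposure lasted seven days before readout.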
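Wherever viability, T/C is given: 100% = DMSO vehicle control wells.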

Question: With `NC(=O)C(=Cn1cnc(-c2cc(C(F)(F)F)cc(C(F)(F)F)c2)n1)c1cncnc1` + CN1CCN(c2cc(C(=O)Nc3cc4cc(-c5cnn(C)c5)ccc4cn3)ccn2)CC1 as the compound, how does the IC50 (second compound 0.0316 µM) read?
Answer: 127 nM

Question: And the IC50 (second compound 0.1 µM)?
Answer: 39 nM

Question: And the IC50 (second compound 0.316 µM)?
Answer: < 9.49 nM

Question: And the IC50 (second compound 1 µM)?
Answer: < 9.49 nM

Question: And the IC50 (second compound 3.16 µM)?
Answer: < 9.49 nM

Question: And the IC50 (second compound 10 µM)?
Answer: < 9.49 nM

Question: And the viability, T/C (second compound 0.0316 µM, first compound 0.00949 µM)?
Answer: 98.3%

Question: What about the viability, T/C (second compound 0.0316 µM, first compound 0.03 µM) of the same compound?
Answer: 83.4%

Question: What about the viability, T/C (second compound 0.0316 µM, first compound 0.0949 µM) of the same compound?
Answer: 65.4%

Question: What about the viability, T/C (second compound 0.0316 µM, first compound 0.3 µM) of the same compound?
Answer: 5.69%

Question: What about the viability, T/C (second compound 0.0316 µM, first compound 0.949 µM) of the same compound?
Answer: 1.85%

Question: What about the viability, T/C (second compound 0.0316 µM, first compound 3 µM) of the same compound?
Answer: 2.91%

Question: What about the viability, T/C (second compound 0.1 µM, first compound 0.00949 µM) of the same compound?
Answer: 61.6%

Question: And the viability, T/C (second compound 0.1 µM, first compound 0.03 µM)?
Answer: 60.9%

Question: And the viability, T/C (second compound 0.1 µM, first compound 0.0949 µM)?
Answer: 13.1%

Question: And the viability, T/C (second compound 0.1 µM, first compound 0.3 µM)?
Answer: 1.94%

Question: And the viability, T/C (second compound 0.1 µM, first compound 0.949 µM)?
Answer: 0.71%

Question: And the viability, T/C (second compound 0.1 µM, first compound 3 µM)?
Answer: 1.36%

Question: What about the viability, T/C (second compound 0.316 µM, first compound 0.00949 µM) of the same compound?
Answer: 9.76%

Question: What about the viability, T/C (second compound 0.316 µM, first compound 0.03 µM) of the same compound?
Answer: 4.11%

Question: And the viability, T/C (second compound 0.316 µM, first compound 0.0949 µM)?
Answer: 0.34%

Question: What about the viability, T/C (second compound 0.316 µM, first compound 0.3 µM) of the same compound?
Answer: 0.6%

Question: And the viability, T/C (second compound 0.316 µM, first compound 0.949 µM)?
Answer: 0.58%

Question: What about the viability, T/C (second compound 0.316 µM, first compound 3 µM) of the same compound?
Answer: 0.92%

Question: What about the viability, T/C (second compound 1 µM, first compound 0.00949 µM) of the same compound?
Answer: 1%

Question: What about the viability, T/C (second compound 1 µM, first compound 0.03 µM) of the same compound?
Answer: 1.1%

Question: And the viability, T/C (second compound 1 µM, first compound 0.0949 µM)?
Answer: 0.81%

Question: And the viability, T/C (second compound 1 µM, first compound 0.3 µM)?
Answer: 0.47%

Question: And the viability, T/C (second compound 1 µM, first compound 0.949 µM)?
Answer: 0.34%

Question: What about the viability, T/C (second compound 1 µM, first compound 3 µM) of the same compound?
Answer: 3.14%

Question: What about the viability, T/C (second compound 3.16 µM, first compound 0.00949 µM) of the same compound?
Answer: 1.66%

Question: And the viability, T/C (second compound 3.16 µM, first compound 0.03 µM)?
Answer: 1.29%

Question: What about the viability, T/C (second compound 3.16 µM, first compound 0.0949 µM) of the same compound?
Answer: 1.77%

Question: What about the viability, T/C (second compound 3.16 µM, first compound 0.3 µM) of the same compound?
Answer: 1.67%

Question: And the viability, T/C (second compound 3.16 µM, first compound 0.949 µM)?
Answer: 1.12%

Question: What about the viability, T/C (second compound 3.16 µM, first compound 3 µM) of the same compound?
Answer: 1.92%

Question: What about the viability, T/C (second compound 10 µM, first compound 0.00949 µM) of the same compound?
Answer: 1.29%

Question: And the viability, T/C (second compound 10 µM, first compound 0.03 µM)?
Answer: 1.77%

Question: And the viability, T/C (second compound 10 µM, first compound 0.0949 µM)?
Answer: 1.3%

Question: What about the viability, T/C (second compound 10 µM, first compound 0.3 µM) of the same compound?
Answer: 0.74%

Question: And the viability, T/C (second compound 10 µM, first compound 0.949 µM)?
Answer: 1.71%

Question: And the viability, T/C (second compound 10 µM, first compound 3 µM)?
Answer: 1.04%

Question: How did the IC50 (second compound 0.0316 µM) turn out when `Nc1ccccc1NC(=O)c1ccc(CNC(=O)OCc2cccnc2)cc1` + CN1CCN(c2cc(C(=O)Nc3cc4cc(-c5cnn(C)c5)ccc4cn3)ccn2)CC1 was run?
Answer: 3730 nM

Question: And the IC50 (second compound 0.1 µM)?
Answer: 1550 nM

Question: What about the IC50 (second compound 0.316 µM) of the same compound?
Answer: < 31.6 nM

Question: What about the IC50 (second compound 1 µM) of the same compound?
Answer: < 31.6 nM

Question: What about the IC50 (second compound 3.16 µM) of the same compound?
Answer: < 31.6 nM

Question: And the IC50 (second compound 10 µM)?
Answer: < 31.6 nM

Question: What about the viability, T/C (second compound 0.0316 µM, first compound 0.0316 µM) of the same compound?
Answer: 110%

Question: What about the viability, T/C (second compound 0.0316 µM, first compound 0.1 µM) of the same compound?
Answer: 90.6%

Question: What about the viability, T/C (second compound 0.0316 µM, first compound 0.316 µM) of the same compound?
Answer: 92.7%

Question: What about the viability, T/C (second compound 0.0316 µM, first compound 1 µM) of the same compound?
Answer: 101%

Question: What about the viability, T/C (second compound 0.0316 µM, first compound 3.16 µM) of the same compound?
Answer: 57%

Question: And the viability, T/C (second compound 0.0316 µM, first compound 10 µM)?
Answer: 7.85%

Question: What about the viability, T/C (second compound 0.1 µM, first compound 0.0316 µM) of the same compound?
Answer: 84.4%

Question: And the viability, T/C (second compound 0.1 µM, first compound 0.1 µM)?
Answer: 78%

Question: And the viability, T/C (second compound 0.1 µM, first compound 0.316 µM)?
Answer: 77.3%

Question: What about the viability, T/C (second compound 0.1 µM, first compound 1 µM) of the same compound?
Answer: 65.3%

Question: And the viability, T/C (second compound 0.1 µM, first compound 3.16 µM)?
Answer: 25.8%

Question: What about the viability, T/C (second compound 0.1 µM, first compound 10 µM) of the same compound?
Answer: 2.96%

Question: And the viability, T/C (second compound 0.316 µM, first compound 0.0316 µM)?
Answer: 22.3%

Question: And the viability, T/C (second compound 0.316 µM, first compound 0.1 µM)?
Answer: 19.1%

Question: And the viability, T/C (second compound 0.316 µM, first compound 0.316 µM)?
Answer: 15.2%

Question: What about the viability, T/C (second compound 0.316 µM, first compound 1 µM) of the same compound?
Answer: 15.9%

Question: What about the viability, T/C (second compound 0.316 µM, first compound 3.16 µM) of the same compound?
Answer: 2.42%

Question: What about the viability, T/C (second compound 0.316 µM, first compound 10 µM) of the same compound?
Answer: 1.03%

Question: And the viability, T/C (second compound 1 µM, first compound 0.0316 µM)?
Answer: 1.13%

Question: And the viability, T/C (second compound 1 µM, first compound 0.1 µM)?
Answer: 1.4%

Question: And the viability, T/C (second compound 1 µM, first compound 0.316 µM)?
Answer: 0.97%

Question: And the viability, T/C (second compound 1 µM, first compound 1 µM)?
Answer: 1.21%

Question: What about the viability, T/C (second compound 1 µM, first compound 3.16 µM) of the same compound?
Answer: 1.83%

Question: What about the viability, T/C (second compound 1 µM, first compound 10 µM) of the same compound?
Answer: 0.7%

Question: And the viability, T/C (second compound 3.16 µM, first compound 0.0316 µM)?
Answer: 1.82%

Question: And the viability, T/C (second compound 3.16 µM, first compound 0.1 µM)?
Answer: 1.26%

Question: And the viability, T/C (second compound 3.16 µM, first compound 0.316 µM)?
Answer: 0.87%

Question: And the viability, T/C (second compound 3.16 µM, first compound 1 µM)?
Answer: 2.2%

Question: What about the viability, T/C (second compound 3.16 µM, first compound 3.16 µM) of the same compound?
Answer: 1.61%

Question: What about the viability, T/C (second compound 3.16 µM, first compound 10 µM) of the same compound?
Answer: 0.94%

Question: And the viability, T/C (second compound 10 µM, first compound 0.0316 µM)?
Answer: 1.7%

Question: And the viability, T/C (second compound 10 µM, first compound 0.1 µM)?
Answer: 0.57%

Question: What about the viability, T/C (second compound 10 µM, first compound 0.316 µM) of the same compound?
Answer: 0.67%

Question: What about the viability, T/C (second compound 10 µM, first compound 1 µM) of the same compound?
Answer: 2.12%

Question: And the viability, T/C (second compound 10 µM, first compound 3.16 µM)?
Answer: 2.19%

Question: And the viability, T/C (second compound 10 µM, first compound 10 µM)?
Answer: 0.39%
